Data on 19 compounds can be found in US6872745B2, “Antipicornaviral compounds and compositions, their pharmaceutical uses, and materials for their synthesis” (Agouron Pharmaceuticals, Inc., priority 2000, dated 2005).

pEC50: −log10 of the molar value. Where only a bound is given, the exact number is not on record here.

The nature of data set [1]: Cytotoxicity in mock-infected cells of the antirhinoviral assay (XTT). To be noted: human, H1-HeLa cells, table line HRV-14. Format: cell-based. How it is done: (§1) In this cell protection assay, the ability of compounds to protect cells against HRV infection was measured by the XTT dye reduction method, which is described in Weislow et al., J. Natl. Cancer Inst. (1989), vol. 81, 577-586. H1-HeLa cells were infected with HRV-14 at a multiplicity of infection (m.o.i.) of 0.13 (virus particles/cell) or mock-infected with medium only. Infected or mock-infected cells were resuspended at 8×10^5 cells per ml, and incubated with appropriate concentrations of the compounds to be tested. Two days later, XTT/PMS was added to test plates and the amount of formazan produced was quantified spectrophotometrically at 450/650 nm. The EC50 value was calculated as the concentration of compound that increased the percentage of formazan production in compound-treated, virus-infected cells to 50% of that produced by compound-free, mock-infected cells. The 50% cytotoxic dose (CC50) was calculated as the concentration of compound that decreased the percentage of formazan produced in compound-treated, mock-infected cells to 50% of that produced by compound-free, mock-infected cells. The therapeutic index (TI) was calculated by dividing the CC50 value by the EC50 value.
(§2) All strains of human rhinovirus (HRV) for use in this assay were purchased from American Type Culture Collection (ATCC), except for HRV serotype-14 (produced from the infectious cDNA clone constructed by Dr. Robert Rueckert, Institute for Molecular Virology, University of Wisconsin, Madison, Wis.). HRV stocks were propagated and viral assays were performed in H1-HeLa cells (ATCC). Cells were grown in minimal essential medium with 10% fetal bovine serum, available from Life Technologies (Gaithersburg, Md.).

For the next data set, the system named is HRV-14. As to the kind of experiment: Antirhinoviral H1-HeLa cell culture assay (XTT cell protection). As to conditions: Rhinovirus B, HRV14, H1-HeLa, HRV-14, H1-HeLa cells. Format: cell-based, human rhinovirus. Here is the method: as §1, §2
The target of data set [2] is T1, rhinovirus 3C protease, serotype 14 (Human rhinovirus 14, UniProt P03303).
T1 construct: Recombinant rhinovirus 3C proteases; made in house
As to the kind of experiment: Inhibition of rhinovirus 3C protease (FRET assay, enzyme start). Format: biochemical. As to conditions: HRV-14 3C protease, progress curves, read-out: Kobs/I. Here is the method: Stock solutions (50 mM, in DMSO) of various compounds were prepared; dilutions were in the same solvent. Recombinant rhinovirus 3C proteases (see Birch et al., “Purification of recombinant human rhinovirus 14 3C protease expressed in Escherichia coli,” Protein Expr. Pur. (1995), vol. 6(5), 609-618) from serotypes 14, 16, and 2 were prepared by the following standard chromatographic procedures: (1) ion exchange using Q Sepharose Fast Flow from Pharmacia; (2) affinity chromatography using Affi-Gel Blue from Biorad; and (3) sizing using Sephadex G-100 from Pharmacia. Each assay sample contained 2% DMSO, 50 mM tris pH 7.6, 1 mM EDTA, a test compound at the indicated concentration, approximately 1 μM substrate, and 50-100 nM protease. The kobs/I values were obtained from reactions initiated by addition of enzyme rather than substrate. RVP activity was measured in the fluorescence resonance energy transfer assay. The substrate was (N-terminal) DABCYL-(Gly-Arg-Ala-Val-Phe-Gln-Gly-Pro-Val-Gly)-EDANS. In the uncleaved peptide, the EDANS fluorescence was quenched by the proximal DABCYL moiety. When the peptide was cleaved, the quenching was relieved, and activity was measured as an increase in fluorescence signal. The tabulated data in the column designated kobs/[I] were measured from progress curves in enzyme start experiments.

T1 sequence (P03303 1538-1719): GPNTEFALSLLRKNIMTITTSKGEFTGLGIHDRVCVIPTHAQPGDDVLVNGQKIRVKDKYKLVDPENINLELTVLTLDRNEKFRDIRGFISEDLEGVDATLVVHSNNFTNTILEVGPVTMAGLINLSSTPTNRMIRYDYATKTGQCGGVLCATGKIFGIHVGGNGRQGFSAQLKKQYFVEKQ

For `CCOC(=O)/C=C/[C@H](CCC(N)=O)NC(=O)[C@H](Cc1ccccc1)NC(=O)c1ccc(-c2ccccc2OC)[nH]1` [Compound 11, 6-Carbamoyl-4S-(2S-{[5-(2-methoxy-phenyl)-1H-pyrrole-2-carbonyl]-amino}-3-phenyl-propionylamino)-hex-2(trans)-enoic acid ethyl ester], the CC50 at 2 days in data set [1] is > 10 µM. In the data set on HRV-14, this compound had a pEC50 of 6.19. The kinact/KI in data set [2] came to 5000 M⁻¹ s⁻¹.
For `CCOC(=O)/C=C/[C@H](CCC(N)=O)NC(=O)[C@H](Cc1ccccc1)NC(=O)c1ccc(-c2cccc(Cl)c2Cl)[nH]1` [Compound 1] the same measures were > 10 µM, 6.69 and 20300 M⁻¹ s⁻¹.
For `CCOC(=O)/C=C/[C@H](C[C@@H]1CCNC1=O)NC(=O)[C@H](CC)CC(=O)c1ccc(-c2ccccc2C(F)(F)F)[nH]1` [Compound 37, 4S-{2R-Ethyl-4-oxo-4-[5-(2-trifluoromethyl-phenyl)-1H-pyrrol-2-yl]-butyrylamino}-5-(2-oxo-pyrrolidin-3S-yl)-pent-2(trans)-enoic acid ethyl ester] the same measures were > 10 µM, 6.58 and 26400 M⁻¹ s⁻¹.
For `CCOC(=O)/C=C/[C@H](CCC(N)=O)NC(=O)[C@H](Cc1ccccc1)NC(=O)c1ccc(-c2cccc3c2OCO3)[nH]1` [Compound 12] the same measures were > 10 µM, 5.90 and 2700 M⁻¹ s⁻¹.
As for `CCOC(=O)/C=C/[C@H](CCC(N)=O)NC(=O)[C@H](Cc1ccccc1)NC(=O)c1ccc(-c2cncc3ccccc23)[nH]1` [Compound 5, 6-Carbamoyl-4S-{2S-[(5-isoquinolin-4-yl-1H-pyrrole-2-carbonyl)-amino]-3-phenyl-propionylamino}-hex-2(trans)-enoic acid ethyl ester], the CC50 at 2 days in data set [1] is > 10 µM. This compound had a pEC50 with HRV-14 of 5.96. Moreover, the kinact/KI in data set [2] was determined as 12700 M⁻¹ s⁻¹.
The like results for `CCC[C@H](NC(=O)c1ccc(-c2ccccc2C(F)(F)F)[nH]1)C(=O)N[C@H](/C=C/C(=O)OCC)CCC(N)=O` [Compound 18, 6-Carbamoyl-4S-(2S-{[5-(2-trifluoromethyl-phenyl)-1H-pyrrole-2-carbonyl]-amino}-pentanoylamino)-hex-2(trans)-enoic acid ethyl ester] were, in that order, > 10 µM, 5.80 and 3140 M⁻¹ s⁻¹.
The like results for `CCOC(=O)/C=C/[C@H](CCC(N)=O)NC(=O)[C@H](Cc1ccccc1)NC(=O)c1ccc(-c2cccc(C(C)C)c2)[nH]1` [Compound 6, 6-Carbamoyl-4S-(2S-{[5-(3-isopropyl-phenyl)-1H-pyrrole-2-carbonyl]-amino}-3-phenyl-propionylamino)-hex-2(trans)-enoic acid ethyl ester] were, in that order, > 10 µM, 5.85 and 2130 M⁻¹ s⁻¹.
The like results for `CCCC[C@H](NC(=O)c1ccc(-c2ccccc2C(F)(F)F)[nH]1)C(=O)N[C@H](/C=C/C(=O)OCC)CCC(N)=O` [Compound 19, 6-Carbamoyl-4S-(2S-{[5-(2-trifluoromethyl-phenyl)-1H-pyrrole-2-carbonyl]-amino}-hexanoylamino)-hex-2(trans)-enoic acid ethyl ester] were, in that order, > 10 µM, 5.82 and 6650 M⁻¹ s⁻¹.
For `CCOC(=O)/C=C/[C@H](CCC(N)=O)NC(=O)[C@H](CC)NC(=O)c1ccc(-c2ccccc2C(F)(F)F)[nH]1` [Compound 23, 6-Carbamoyl-4S-(2S-{[5-(2-trifluoromethyl-phenyl)-1H-pyrrole-2-carbonyl]-amino}-butyrlamino)-hex-2(trans)-enoic acid ethyl ester], in data set [1], the CC50 at 2 days was > 10 µM. In the data set on HRV-14, this compound showed a pEC50 of 5.81. Besides, the kinact/KI in data set [2] was 3800 M⁻¹ s⁻¹.
Take `CCOC(=O)/C=C/[C@H](CCC(N)=O)NC(=O)[C@H](Cc1ccccc1)NC(=O)c1ccc(-c2ccncc2)[nH]1` [Compound 15, 6-Carbamoyl-4S-{3-phenyl-2S-[(5-pyridin-4-yl-1H-pyrrole-2-carbonyl)-amino]-propionylamino}-hex-2(trans)-enoic acid ethyl ester]: in data set [1], the CC50 at 2 days is > 100 µM. For the same compound, the pEC50 with HRV-14 was 4.57. In addition, the kinact/KI in data set [2] came to 980 M⁻¹ s⁻¹.
For `C#CC[C@H](NC(=O)c1ccc(-c2ccccc2C(F)(F)F)[nH]1)C(=O)N[C@H](/C=C/C(=O)OCC)CCC(N)=O` [Compound 16, 6-Carbamoyl-4S-(2S-{[5-(2-trifluoromethyl-phenyl)-1H-pyrrole-2-carbonyl]-amino}-pent-4-ynoylamino)-hex-2(trans)-enoic acid ethyl ester] the same measures were > 10 µM, 5.88 and 7100 M⁻¹ s⁻¹.
The like results for `CCOC(=O)/C=C/[C@H](CCC(N)=O)NC(=O)[C@H](Cc1ccccc1)NC(=O)c1ccc(-c2cccc3ccccc23)[nH]1` [Compound 3] were, in that order, > 10 µM, 6.96 and 30800 M⁻¹ s⁻¹.
The like results for `CCOC(=O)/C=C/[C@H](C[C@@H]1CCNC1=O)NC(=O)[C@@H](CC(=O)c1ccc[nH]1)Cc1ccccc1` [Compound 30] were, in that order, > 10 µM, 5.48 and 2500 M⁻¹ s⁻¹.
On to `O=C1OCC/C1=C\[C@H](C[C@@H]1CCNC1=O)NC(=O)[C@@H](CC(=O)c1ccc(-c2cccc3ccccc23)[nH]1)Cc1ccc(F)cc1` [Compound 33, 2-(R,S)-(4-Fluorobenzyl)-4-(5-naphthalen-1-yl-1H-pyrrol-2-yl)-4-oxo-N-[2-(2-oxo-dihydro-furan-3-ylidine)-1S-(2-oxo-pyrrolidin-3S-ylmethyl)-ethyl]-butyramide], for which, in data set [1], the CC50 at 2 days is > 10 µM. In the data set with HRV-14, this compound gave a pEC50 of 6.67. In data set [2], the kinact/KI was 100000 M⁻¹ s⁻¹.
For `CCOC(=O)/C=C/[C@H](C[C@@H]1CCNC1=O)NC(=O)[C@@H](CC(=O)c1ccc(-c2ccccc2C(F)(F)F)[nH]1)Cc1ccccc1` [Compound 35, 4S-{2R-Benzyl-4-oxo-4-[5-(2-trifluoromethyl-phenyl)-1H-pyrrol-2-yl]-butyrylamino}-5-(2-oxo-pyrrolidin-3S-yl)-pent-2(trans)-enoic acid ethyl ester] the same measures were > 10 µM, 6.84 and 125000 M⁻¹ s⁻¹.
The like results for `CCOC(=O)/C=C/[C@H](CCC(N)=O)NC(=O)[C@H](Cc1ccccc1)NC(=O)c1ccc(CCC(F)(F)F)[nH]1` [Compound 22, 6-Carbamoyl-4S-(3-phenyl-2S-{[5-(3,3,3-trifluoro-propyl)-1H-pyrrole-2-carbonyl]-amino}-propionylamino)-hex-2(trans)-enoic acid ethyl ester] were, in that order, > 10 µM, 5.24 and 4400 M⁻¹ s⁻¹.
As for `CCOC(=O)/C=C/[C@H](C[C@@H]1CCNC1=O)NC(=O)[C@H](Cc1ccccc1)NC(=O)c1ccc[nH]1` [Compound 24, 5-(2-Oxo-pyrrolidin-3S-yl)-4S-{3-phenyl-2S-[(1H-pyrrole-2-carbonyl)-amino]-propionylamino}-pent-2(trans)-enoic acid ethyl ester], the 50% cytotoxic concentration (CC50) at 2 days in data set [1] is > 100 µM. The pEC50 in the data set with HRV-14 is 5.41. For the same compound, the kinact/KI in data set [2] was determined as 5460 M⁻¹ s⁻¹.
The like results for `CCOC(=O)/C=C/[C@H](CCC(N)=O)NC(=O)[C@H](Cc1ccccc1)NC(=O)c1ccc(-c2cccnc2)[nH]1` [Compound 8, 6-Carbamoyl-4S-{3-phenyl-2S-[(5-pyridin-3-yl-1H-pyrrole-2-carbonyl)-amino]-propionylamino}-hex-2(trans)-enoic acid ethyl ester] were, in that order, > 10 µM, 5.31 and 1300 M⁻¹ s⁻¹.
The like results for `O=C1OCC/C1=C\[C@H](C[C@@H]1CCNC1=O)NC(=O)[C@H](Cc1ccc(F)cc1)NC(=O)c1ccc(-c2cccc3ccccc23)[nH]1` [Compound 26] were, in that order, > 10 µM, 7.14 and 188000 M⁻¹ s⁻¹.
